Measured values reported in patent publication US12668587B2, “Benzimidazolone GLP-1 receptor agonist and use thereof” (HANGZHOU ZHONGMEIHUADONG PHARMACEUTICAL CO., LTD., priority 2020, dated 2026).
Like-named read-outs stand apart in the source and are kept apart here.

Biological target: Human GLP-1R (Homo sapiens, UniProt P43220)
Assay: GLP-1R agonist activity, HTRF cAMP detection in 293A GFP-GLP-1R cells
Set-up: Emax: dose or concentration left out as unconfirmed
Conditions: for Emax: 293A
[1] = cAMP level, 293A GFP-GLP-1R cells, 30 min incubation, geometric mean

Human GLP-1R, sequence (P43220 24-463): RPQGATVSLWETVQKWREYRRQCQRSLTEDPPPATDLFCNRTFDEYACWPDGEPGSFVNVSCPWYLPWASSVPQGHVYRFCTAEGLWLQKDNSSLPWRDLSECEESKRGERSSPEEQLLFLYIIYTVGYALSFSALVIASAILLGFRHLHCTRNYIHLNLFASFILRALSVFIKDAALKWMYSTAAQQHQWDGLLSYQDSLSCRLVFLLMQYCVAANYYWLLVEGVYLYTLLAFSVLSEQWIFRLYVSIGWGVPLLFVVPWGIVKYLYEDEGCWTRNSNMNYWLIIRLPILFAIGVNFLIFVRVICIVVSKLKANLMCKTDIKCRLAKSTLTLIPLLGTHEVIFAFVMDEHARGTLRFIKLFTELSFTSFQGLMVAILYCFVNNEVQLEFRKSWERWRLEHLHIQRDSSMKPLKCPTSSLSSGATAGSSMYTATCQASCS
Procedure: GLP-1R-mediated agonist activity was determined by cell-based assays using a homogeneous time-resolved fluorescence (i.e., HTRF)-based cAMP detection kit, which measures the level of cAMP in cells. The method was a competitive immunoassay. It enabled direct pharmacological characterization of compounds acting on Gs-coupled receptors in adherent or suspending cells.
The standard curve of native cAMP or unlabeled cAMP produced by cells competed with d2-labeled cAMP red receptors to bind monoclonal anti-cAMP Eu3+ cryptate donors, and the specific signal was inversely proportional to the concentration of cAMP in standard or tested samples.
Human GLP-1R encoding sequence (NCBI reference sequence NP_002053.3) was subcloned into pEGFP-N1 (tsingke), and the cell line stably expressing the receptor was isolated. The expression density of GLP-1R was confirmed by the expression of GFP observed under a fluorescence microscope.
Cells were collected from a T25 tissue culture flask and centrifuged at room temperature at 1000 rpm for 5 minutes. The cell precipitates were then re-suspended in 1 mL of the stimulating buffer. 20 μL sample of cell suspension was counted on a counter STAR IC 1000 to determine the cell viability and the cell count per mL. The remaining cell suspension was then regulated with the stimulating buffer to deliver 2000 living cells per well using a multi-channel pipette. 5 μL of the cell suspension was added to each well of the plate which already contained the compound. The plate was sealed and incubated at 37° C. with 5% CO2 for 30 minutes.
After 30 minutes of incubation, 5 μL of d2-labeled cAMP and 5 μL of anti-cAMP cryptate (both 1: 20 diluted in the cell lysis buffer) were added to each well of the plate. The plate was then incubated at room temperature for 60 minutes, and the changes of HTRF signal were read with Tecan Spark reader: absorbance values at 340 nm (excitation)/at 615 nm and 665 nm (emission). Raw data were converted into nM cAMP by interpolation from the cAMP standard curve, and the effect in percentage was determined relative to the saturated concentration of the complete agonist GLP-17˜37 (400 nM) contained in each plate. Determination of EC50 was performed based on the agonist dose-response curve, which was analyzed using a four-parameter logical dose-response equation with a curve fitting program.
The test data presented the results in the form of a geometric mean (EC50s) based on the number of repetition times.

| Structure (SMILES) | EC50 [nM] | Emax [%] | EC50 [1] [nM] |
| --- | --- | --- | --- |
| CON(C)C(=O)c1ccc(COc2cccc(C3CCN(Cc4nc5ccc(C(=O)O)cc5n4C[C@@H]4CCO4)CC3)n2)c(F)c1 [Compound 15, (S)-2-((4-(6-((2-fluoro-4-(methoxy(methyl)carbamoyl)benzyl)oxy)pyridin-2-yl)piperidin-1-yl)methyl)-1-(oxetan-2-ylmethyl)-1H-benzo[d]imidazole-6-carboxylic acid] | > 1000 | 13.6 |  |
| CC(=O)c1cccc(COc2cccc(C3CCN(Cc4nc5ccc(C(=O)O)cc5n4C[C@@H]4CCO4)CC3)n2)c1 [Compound 18, (S)-2-((4-(6-((3-acetylbenzyl)oxy)pyridin-2-yl)piperidin-1-yl)methyl)-1-(oxetan-2-ylmethyl)-1H-benzo[d]imidazole-6-carboxylic acid] | 22.1 | 113 |  |
| C[C@H]1CN(c2cccc(OCc3ccc(C(=O)C4CC4)cc3F)n2)CCN1Cc1nc2ccc(C(=O)O)cc2n1C[C@@H]1CCO1 [Compound 39, 2-(((S)-4-(6-((4-(cyclopropanecarbonyl)-2-fluorobenzyl)oxy)pyridin-2-yl)-2-methylpiperazin-1-yl)methyl)-1-(((S)-oxetan-2-yl)methyl)-1H-benzo[d]imidazole-6-carboxylic acid] | 3.38 | 87.9 |  |
| NC(=O)c1ccc(COc2cccc(C3CCN(Cc4nc5ccc(C(=O)O)cc5n4C[C@@H]4CCO4)CC3)n2)c(F)c1 [Compound 3, (S)-2-((4-(6-((4-carbamoyl-2-fluorobenzyl)oxy)pyridin-2-yl)piperidin-1-yl)methyl)-1-(oxetan-2-ylmethyl)-1H-benzo[d]imidazole-6-carboxylic acid] |  | 54.5 | 75.9 |
| O=C(O)c1ccc2nc(CN3CCC(c4cccc(OCc5ccc(C(=O)c6cccnc6)cc5F)n4)CC3)n(C[C@@H]3CCO3)c2c1 [Compound 8, (S)-2-((4-(6-((2-fluoro-4-nicotinoylbenzyl)oxy)pyridin-2-yl)piperidin-1-yl)methyl)-1-(oxetan-2-ylmethyl)-1H-benzo[d]imidazole-6-carboxylic acid] |  | 88 | 23.7 |
| CC(=O)c1ccc(COc2cccc(C3CCN(Cc4nc5ccc(C(=O)O)cc5n4C[C@@H]4CCO4)CC3)n2)c(Cl)c1 [Compound 27] | 0.13 | 83.9 |  |
| O=C(O)c1ccc2nc(CN3CCC(c4cccc(OCc5ccc(C(=O)C6CC6)cc5F)n4)CC3)n(C[C@@H]3CCO3)c2n1 [Compound 33, (S)-2-((4-(6-((4-(cyclopropanecarbonyl)-2-fluorobenzyl)oxy)pyridin-2-yl)piperidin-1-yl)methyl)-3-(oxetan-2-ylmethyl)-3H-imidazo[4,5-b]pyridine-5-carboxylic acid] | 1.59 | 92.9 |  |
| CC(=O)c1ccc(COc2cccc(C3CCN(Cc4nc5ccc(C(=O)O)cc5n4C[C@@H]4CCO4)CC3)n2)cc1 [Compound 16, (S)-2-((4-(6-((4-acetylbenzyl)oxy)pyridin-2-yl)piperidin-1-yl)methyl)-1-(oxetan-2-ylmethyl)-1H-benzo[d]imidazole-6-carboxylic acid] | 7.19 | 88.2 |  |
| Cc1cc(C(=O)C2CC2)ccc1COc1cccc(N2CCN(Cc3nc4ccc(C(=O)O)cc4n3C[C@@H]3CCO3)[C@@H](C)C2)n1 [Compound 41, 2-(((S)-4-(6-((4-(cyclopropanecarbonyl)-2-methylbenzyl)oxy)pyridin-2-yl)-2-methylpiperazin-1-yl)methyl)-1-(((S)-oxetan-2-yl)methyl)-1H-benzo[d]imidazole-6-carboxylic acid] | > 1000 | 77.3 |  |
| CNC(=O)c1ccc(COc2cccc(C3CCN(Cc4nc5ccc(C(=O)O)cc5n4C[C@@H]4CCO4)CC3)n2)c(F)c1 [Compound 4, (S)-2-((4-(6-((2-fluoro-4-(methylcarbamoyl)benzyl)oxy)pyridin-2-yl)piperidin-1-yl)methyl)-1-(oxetan-2-ylmethyl)-1H-benzo[d]imidazole-6-carboxylic acid] |  | 68.6 | 179 |
| COc1cc(C(=O)C2CC2)cc(F)c1COc1cccc(C2CCN(Cc3nc4ccc(C(=O)O)cc4n3C[C@@H]3CCO3)CC2)n1 [Compound 36, (S)-2-((4-(6-((4-(cyclopropanecarbonyl)-2-fluoro-6-methoxybenzyl)oxy)pyridin-2-yl)piperidin-1-yl)methyl)-1-(oxetan-2-ylmethyl)-1H-benzo[d]imidazole-6-carboxylic acid] | 20.4 | 84.9 |  |
| CC(=O)c1ccc(COc2cccc(C3CCN(Cc4nc5ccc(C(=O)O)cc5n4C[C@@H]4CCO4)CC3)n2)nc1 [Compound 9, (S)-2-((4-(6-((5-acetylpyridin-2-yl)methoxy)pyridin-2-yl)piperidin-1-yl)methyl)-1-(oxetan-2-ylmethyl)-1H-benzo[d]imidazole-6-carboxylic acid] | 27 | 83.4 |  |
| Cc1cc(COc2cccc(C3CCN(Cc4nc5ccc(C(=O)O)cc5n4C[C@@H]4CCO4)CC3)n2)c(F)cc1C(=O)C1CC1 [Compound 38, (S)-2-((4-(6-((4-(cyclopropanecarbonyl)-2-fluoro-5-methylbenzyl)oxy)pyridin-2-yl)piperidin-1-yl)methyl)-1-(oxetan-2-ylmethyl)-1H-benzo[d]imidazole-6-carboxylic acid] | > 1000 | 85.9 |  |
| CC(=O)c1ccc(COc2cccc(C3CCN(Cc4nc5ccc(C(=O)O)cc5n4C[C@@H]4CCO4)CC3)n2)cc1F [Compound 26, (S)-2-((4-(6-((4-acetyl-3-fluorobenzyl)oxy)pyridin-2-yl)piperidin-1-yl)methyl)-1-(oxetan-2-ylmethyl)-1H-benzo[d]imidazole-6-carboxylic acid] | 4.57 | 94.4 |  |
| CC(=O)c1ccc(COc2cccc(C3CCN(Cc4nc5ccc(C(=O)O)cc5n4C[C@@H]4CCO4)CC3)n2)c(OC2CC2)c1 [Compound 31, (S)-2-((4-(6-((4-acetyl-2-cyclopropoxybenzyl)oxy)pyridin-2-yl)piperidin-1-yl)methyl)-1-(oxetan-2-ylmethyl)-1H-benzo[d]imidazole-6-carboxylic acid] | 18.5 | 75.4 |  |
| CN1CCC(C(=O)c2ccc(COc3cccc(C4CCN(Cc5nc6ccc(C(=O)O)cc6n5C[C@@H]5CCO5)CC4)n3)c(F)c2)CC1 [Compound 29, (S)-2-((4-(6-((2-fluoro-4-(1-methylpiperidin-4-carbonyl)benzyl)oxy)pyridin-2-yl)piperidin-1-yl)methyl)-1-(oxetan-2-ylmethyl)-1H-benzo[d]imidazole-6-carboxylic acid] |  | 7.12 |  |
| COc1cc(COc2cccc(C3CCN(Cc4nc5ccc(C(=O)O)cc5n4C[C@@H]4CCO4)CC3)n2)c(F)cc1C(=O)C1CC1 [Compound 37, (S)-2-((4-(6-((4-(cyclopropanecarbonyl)-2-fluoro-5-methoxybenzyl)oxy)pyridin-2-yl)piperidin-1-yl)methyl)-1-(oxetan-2-ylmethyl)-1H-benzo[d]imidazole-6-carboxylic acid] | 228 | 68.5 |  |

Further compounds by falling EC50, results first:

| EC50 [nM] | Emax [%] | EC50 [1] [nM] | Structure (SMILES) |
| --- | --- | --- | --- |
| 0.91 | 112 |  | CCOc1cc(C(C)=O)ccc1COc1cccc(C2CCN(Cc3nc4ccc(C(=O)O)cc4n3C[C@@H]3CCO3)CC2)n1 [Compound 30, (S)-2-((4-(6-((4-acetyl-2-ethoxybenzyl)oxy)pyridin-2-yl)piperidin-1-yl)methyl)-1-(oxetan-2-ylmethyl)-1H-benzo[d]imidazole-6-carboxylic acid] |
| 0.85 | 111 |  | CC(=O)c1ccc(COc2cccc(C3CCN(Cc4nc5ccc(C(=O)O)cc5n4C[C@@H]4CCO4)CC3)n2)c(F)c1 [Compound 1, (S)-2-((4-(6-((4-acetyl-2-fluorobenzyl)oxy)pyridin-2-yl)piperidin-1-yl)methyl)-1-(oxetan-2-ylmethyl)-1H-benzo[d]imidazole-6-carboxylic acid] |
| 0.31 | 120 |  | COc1cc(C(=O)C2CC2)ccc1COc1cccc(C2CCN(Cc3nc4ccc(C(=O)O)cc4n3C[C@@H]3CCO3)CC2)n1 [Compound 20, (S)-2-((4-(6-((4-(cyclopropanecarbonyl)-2-methoxybenzyl)oxy)pyridin-2-yl)piperidin-1-yl)methyl)-1-(oxetan-2-ylmethyl)-1H-benzo[d]imidazole-6-carboxylic acid] |
| 0.3 | 95.2 |  | CC(=O)c1ccc(COc2cccc(N3CCN(Cc4nc5ccc(C(=O)O)cc5n4C[C@@H]4CCO4)[C@@H](C)C3)n2)c(F)c1 [Compound 28, 2-(((S)-4-(6-((4-acetyl-2-fluorobenzyl)oxy)pyridin-2-yl)-2-methylpiperazin-1-yl)methyl)-1-(((S)-oxetan-2-yl)methyl)-1H-benzo[d]imidazole-6-carboxylic acid] |
| 0.25 | 147 |  | COc1cc(C(C)=O)ccc1COc1cccc(C2CCN(Cc3nc4ccc(C(=O)O)cc4n3C[C@@H]3CCO3)CC2)n1 [Compound 12, (S)-2-((4-(6-((4-acetyl-2-methoxybenzyl)oxy)pyridin-2-yl)piperidin-1-yl)methyl)-1-(oxetan-2-ylmethyl)-1H-benzo[d]imidazole-6-carboxylic acid] |
| 0.23 |  |  | O=C(O)c1ccc2nc(CC3CCN(c4cccc(OCc5ccc(C(=O)C6CC6)cc5F)n4)CC3)n(C[C@@H]3CCO3)c2c1 [Compound 42, (S)-2-((1-(6-((4-(cyclopropanecarbonyl)-2-fluorobenzyl)oxy)pyridin-2-yl)piperidin-4-yl)methyl)-1-(oxetan-2-ylmethyl)-1H-benzo[d]imidazole-6-carboxylic acid] |
| 0.02 |  |  | O=C(O)c1ccc2nc(CN3CCC(c4cccc(OCc5ccc(C(=O)C6CC6)cc5Cl)n4)CC3)n(C[C@@H]3CCO3)c2c1 [Compound 44, (S)-2-((4-(6-((2-chloro-4-(cyclopropanecarbonyl)benzyl)oxy)pyridin-2-yl)piperidin-1-yl)methyl)-1-(oxetan-2-ylmethyl)-1H-benzo[d]imidazole-6-carboxylic acid] |
| 0.01 |  |  | O=C(O)c1ccc2nc(CN3CCC(c4cccc(OCc5ccc(C(=O)C6CC6)cc5F)n4)CC3)n(CC3(CF)CC3)c2c1 [Compound 47] |
